Experimental data from patent publication US20180228795A1, “COMBINATION THERAPY FOR CANCER” (Eli Lilly and Company, priority 2015, published 2018).

Legend:
Experiment in all cases: Antitumor effects in PDX mouse model of TNBC
Format in all cases: in vivo
PDX TNBC Model CTG-0018 = settings: PDX model CTG-0018; A 10 mg/kg SC BID 3 days on/4 off ×4; B 7.5 mg/kg PO BID×28; versus vehicle
Description: (§1) Establish PDX tumor models from viable human tumor tissue and serially passage in immunocompromised female mice a limited number of times. Using tumor fragments harvested from donor host animals, perform unilateral subcutaneous implants from a specific passage of the PDX tumor model on the flanks of the experimental animals. When tumor volumes reach approximately 150-250 mm^3 in size, randomize the animals by treatment arm by randomization techniques well known in the art and place into their respective treatment groups using 1 animal per treatment group (3 animals in an untreated group). Formulate CHK1 inhibitor, 5-(5-(2-(3-aminopropoxy)-6-methoxyphenyl)-1H-pyrazol-3-ylamino)pyrazine-2-carbonitrile methanesulfonate hydrate, (Compound A) every 14 days in 20% captisol (dissolved in water) and administer subcutaneously twice daily at a dose of 10 mg/kg on days 1/2/3 of a weekly cycle for 4 weeks (SC, BID [3 days on/4 off]×4). Formulate the PI3K/mTOR dual inhibitor, 8-[5-(1-hydroxy-1-methylethyl)pyridin-3-yl]-1-[(2S)-2-methoxypropyl]-3-methyl-1,3-dihydro-2H-imidazo[4,5-c]quinolin-2-one, (Compound B) weekly in 1% (HEC)/0.25% Tween 80 (Polysorbate 80)/0.05% Dow-Corning Antifoam 1510-US and administer by oral gavage twice-daily for 28 days (PO, BID×28) at a dose of 7.5 mg/kg. Dose combination treatment animals with both compounds according to the schedule described above for monotherapy, and dose vehicle treatment animals with vehicle according to the schedule for Compound B.
(§2) Test the combination of Compound A and Compound B, as well as their respective monotherapies, in 40 PDX models (Table 1) of TNBC. Assess antitumor efficacy of the treatment groups by measuring tumor volume via caliper measurements twice a week during the course of the study. Measure body weight twice weekly during the course of the study as a general indicator of tolerability.
(§3) Capture tumor size and body weight twice per week. Estimate tumor volume (V) by using the formula: V=(π/6)×L×W^2 where L=larger of measured diameter and W=smaller perpendicular diameter. Calculate relative tumor volume using the tumor volume measurement taken nearest to the last day of dosing for each animal (T), divided by the baseline tumor volume for that animal (T0), which is the volume recorded on or just prior to the first day of dosing, Y=T/T0. Calculate % ΔT/ΔC values using the formula % ΔT/ΔC=100(YT−1)/(YC−1), whereby YT or YC=geometric mean relative volume of the compound treated group or the control group, respectively. Tumor growth inhibition is observed in those instances where the calculated values for % ΔT/ΔC are less than 100% whereby greater inhibition results in smaller % ΔT/ΔC values. If ΔT<0, then a tumor regression value is calculated instead of % ΔT/ΔC whereby % Regression=100(YT−1). Note that negative values indicate regression. We collectively refer to % ΔT/ΔC and % Regression as % Response.
(§4) Examine relative tumor volume (final volume divided by baseline volume) on the last day of treatment or the last day on which data from all three treatment groups and vehicle is available, if it is earlier than the last day of treatment and at least 14 days after baseline. Expected additive relative volume is determined using the Bliss method (Bliss, C. I., Ann Appl Biol, 1939; 26(3):585-615). Specifically, denoting Y=relative volume, YExp=(Y1*Y2)/YV, where YExp=expected additive relative volume, Y1 and Y2 are the relative volumes in the single agent groups (Compound A and Compound B), and YV is the relative volume in the vehicle group. A range of additivity is defined around the expected additive relative volume via upper and lower limits as follows:
(§5) Yupper=max(2*YExp,YExp+0.2)
(§6) Ylower=min(YExp/2,YExp−0.2)
(§7) The upper limit of the range is the larger of 2-fold above or 20% above the expected additive relative volume, and the lower limit is the smaller of 2-fold below or 20% below the expected additive relative volume. […]

PDX TNBC Model CTG-0670 = settings: PDX model CTG-0670; A 10 mg/kg SC BID 3 days on/4 off ×4; B 7.5 mg/kg PO BID×28; versus vehicle
Description: as §1, §2, §3, §4, §5, §6, §7

PDX TNBC Model CTG-1167 = settings: PDX model CTG-1167; A 10 mg/kg SC BID 3 days on/4 off ×4; B 7.5 mg/kg PO BID×28; versus vehicle
Description: as §1, §2, §3, §4, §5, §6, §7

PDX TNBC Model CTG-1242 = settings: PDX model CTG-1242; A 10 mg/kg SC BID 3 days on/4 off ×4; B 7.5 mg/kg PO BID×28; versus vehicle
Description: as §1, §2, §3, §4, §5, §6, §7

PDX TNBC Model CTG-1350 = settings: PDX model CTG-1350; A 10 mg/kg SC BID 3 days on/4 off ×4; B 7.5 mg/kg PO BID×28; versus vehicle
Description: as §1, §2, §3, §4, §5, §6, §7

PDX TNBC Model MAXF 449 = settings: PDX model MAXF 449; A 10 mg/kg SC BID 3 days on/4 off ×4; B 7.5 mg/kg PO BID×28; versus vehicle
Description: as §1, §2, §3, §4, §5, §6, §7

PDX TNBC Model MAXF 574 = settings: PDX model MAXF 574; A 10 mg/kg SC BID 3 days on/4 off ×4; B 7.5 mg/kg PO BID×28; versus vehicle
Description: as §1, §2, §3, §4, §5, §6, §7

PDX TNBC Model MAXF 857 = settings: PDX model MAXF 857; A 10 mg/kg SC BID 3 days on/4 off ×4; B 7.5 mg/kg PO BID×28; versus vehicle
Description: as §1, §2, §3, §4, §5, §6, §7

PDX TNBC Model MAXF MX1 = settings: A 10 mg/kg SC BID 3 days on/4 off ×4, B 7.5 mg/kg PO BID×28, versus vehicle
Description: as §1, §2, §3, §4, §5, §6, §7

PDX TNBC Model ST069 = settings: A 10 mg/kg SC BID 3 days on/4 off ×4, B 7.5 mg/kg PO BID×28, versus vehicle
Description: as §1, §2, §3, §4, §5, §6, §7

PDX TNBC Model ST1283 = settings: A 10 mg/kg SC BID 3 days on/4 off ×4, B 7.5 mg/kg PO BID×28, versus vehicle
Description: as §1, §2, §3, §4, §5, §6, §7

PDX TNBC Model ST319 = settings: A 10 mg/kg SC BID 3 days on/4 off ×4, B 7.5 mg/kg PO BID×28, versus vehicle
Description: as §1, §2, §3, §4, §5, §6, §7

PDX TNBC Model ST821 = settings: A 10 mg/kg SC BID 3 days on/4 off ×4, B 7.5 mg/kg PO BID×28, versus vehicle
Description: as §1, §2, §3, §4, §5, §6, §7

PDX TNBC Model ST996 = settings: A 10 mg/kg SC BID 3 days on/4 off ×4, B 7.5 mg/kg PO BID×28, versus vehicle
Description: as §1, §2, §3, §4, §5, §6, §7

SMILES | % Rsp. (% ΔT/ΔC or % Regression) (PDX TNBC Model CTG-0018) | % Rsp. (% ΔT/ΔC or % Regression) (PDX TNBC Model CTG-0670) | % Rsp. (% ΔT/ΔC or % Regression) (PDX TNBC Model CTG-1167) | % Rsp. (% ΔT/ΔC or % Regression) (PDX TNBC Model CTG-1242) | % Rsp. (% ΔT/ΔC or % Regression) (PDX TNBC Model CTG-1350) | % Rsp. (% ΔT/ΔC or % Regression) (PDX TNBC Model MAXF 449) | % Rsp. (% ΔT/ΔC or % Regression) (PDX TNBC Model MAXF 574) | % Rsp. (% ΔT/ΔC or % Regression) (PDX TNBC Model MAXF 857) | % Rsp. (% ΔT/ΔC or % Regression) (PDX TNBC Model MAXF MX1) | % Rsp. (% ΔT/ΔC or % Regression) (PDX TNBC Model ST069) | % Rsp. (% ΔT/ΔC or % Regression) (PDX TNBC Model ST1283) | % Rsp. (% ΔT/ΔC or % Regression) (PDX TNBC Model ST319) | % Rsp. (% ΔT/ΔC or % Regression) (PDX TNBC Model ST821) | % Rsp. (% ΔT/ΔC or % Regression) (PDX TNBC Model ST996)
COc1cccc(OCCCN)c1-c1cc(Nc2cnc(C#N)cn2)n[nH]1.CS(=O)(=O)O [Compound A, 5-(5-(2-(3-aminopropoxy)-6-methoxyphenyl)-1H-pyrazol-3-ylamino)pyrazine-2-carbonitrile methanesulfonate hydrate] | −57.6% | 112.8% | 62.3% | 66.8% | 20.3% | −100.0% | 22.9% | 32.4% | 126.1% | −79.6% | 0.0% | 8.9% | −81.9% | 0.7%
CO[C@@H](C)Cn1c(=O)n(C)c2cnc3ccc(-c4cncc(C(C)(C)O)c4)cc3c21 [Compound B, 8-[5-(1-hydroxy-1-methylethyl)pyridin-3-yl]-1-[(2S)-2-methoxypropyl]-3-methyl-1,3-dihydro-2H-imidazo[4,5-c]quinolin-2-one] | 86.0% | 117.6% | 65.8% | 107.3% | 7.7% | 34.7% | 59.4% | 72.7% | 163.0% | 112.0% | 23.3% | 40.3% | 78.5% | 23.5%
